Results reported in ChEMBL document CHEMBL3525908, “Chronic doxorubicin cardiotoxicity modulates cardiac cytochrome P450-mediated arachidonic acid metabolism in rats” (Drug Metab Dispos, 2012).

What was measured:
Rattus norvegicus [1] = assay: Toxicity in Sprague-Dawley rat assessed as CYP4F4 gene expression in liver administered as cumulative dose of 15 mg/kg, ip divided into 6 injections for 2 weeks followed by compound washout period of 14 days by RT-PCR analysis relative to control; format: organism-based; set-up: dose 15 mg/kg, route intraperitoneal; conditions: in vivo, 336 h
Rattus norvegicus [2] = assay: Toxicity in Sprague-Dawley rat assessed as induction of IL-6 gene expression in kidney administered as cumulative dose of 15 mg/kg, ip divided into 6 injections for 2 weeks followed by compound washout period of 14 days by RT-PCR analysis relative to control; format: organism-based; set-up: dose 15 mg/kg, route intraperitoneal; conditions: 336 h
CYP1B1 = assay: Toxicity in Sprague-Dawley rat assessed as induction of CYP1B1 gene expression in kidney administered as cumulative dose of 15 mg/kg, ip divided into 6 injections for 2 weeks followed by compound washout period of 14 days by RT-PCR analysis relative to control; format: organism-based; set-up: dose 15 mg/kg, route intraperitoneal
CYP2J3 = assay: Toxicity in Sprague-Dawley rat assessed as induction of CYP2J3 gene expression in kidney administered as cumulative dose of 15 mg/kg, ip divided into 6 injections for 2 weeks followed by compound washout period of 14 days by RT-PCR analysis relative to control; format: organism-based; set-up: dose 15 mg/kg, route intraperitoneal
CYP4F5 [3] = assay: Toxicity in Sprague-Dawley rat assessed as induction of CYP4F5 gene expression in kidney administered as cumulative dose of 15 mg/kg, ip divided into 6 injections for 2 weeks followed by compound washout period of 14 days by RT-PCR analysis relative to control; format: organism-based; set-up: dose 15 mg/kg, route intraperitoneal
Rattus norvegicus [4] = assay: Toxicity in Sprague-Dawley rat assessed as CYP1A1 gene expression in kidney administered as cumulative dose of 15 mg/kg, ip divided into 6 injections for 2 weeks followed by compound washout period of 14 days by RT-PCR analysis relative to control; format: organism-based; set-up: dose 15 mg/kg, route intraperitoneal; conditions: in vivo, 336 h
Rattus norvegicus [5] = assay: Toxicity in Sprague-Dawley rat assessed as CYP2B1 gene expression in kidney administered as cumulative dose of 15 mg/kg, ip divided into 6 injections for 2 weeks followed by compound washout period of 14 days by RT-PCR analysis relative to control; format: organism-based; set-up: dose 15 mg/kg, route intraperitoneal; conditions: in vivo, 336 h
Rattus norvegicus [6] = assay: Toxicity in Sprague-Dawley rat assessed as CYP4F4 gene expression in kidney administered as cumulative dose of 15 mg/kg, ip divided into 6 injections for 2 weeks followed by compound washout period of 14 days by RT-PCR analysis relative to control; format: organism-based; set-up: dose 15 mg/kg, route intraperitoneal; conditions: in vivo, 336 h
EPHX2 = assay: Cardiotoxicity in Sprague-Dawley rat assessed as increase in EPHX2 gene expression level administered as cumulative dose of 15 mg/kg, ip divided into 6 injections for 2 weeks followed by compound washout period of 14 days by RT-PCR analysis relative to control; format: toxicity, organism-based; set-up: dose 15 mg/kg, route intraperitoneal; conditions: heart
H9c2 [7] = assay: Cytotoxicity against rat H9c2 cells assessed as reduction in ANP mRNA expression at 1 uM after 6 hrs; format: cell-based; conditions: h9c2, 6 h
H9c2 [8] = assay: Cytotoxicity against rat H9c2 cells assessed as reduction in BNP mRNA expression at 1 uM after 6 hrs; format: cell-based; conditions: h9c2, 6 h
Rattus norvegicus [9] = assay: Cardiotoxicity in Sprague-Dawley rat assessed as increase in CYP4A1 gene expression level administered as cumulative dose of 15 mg/kg, ip divided into 6 injections for 2 weeks followed by compound washout period of 14 days by RT-PCR analysis relative to control; format: toxicity, organism-based; set-up: dose 15 mg/kg, route intraperitoneal; conditions: in vivo, 336 h
H9c2 [10] = assay: Cytotoxicity against rat H9c2 cells assessed as reduction in BNP mRNA expression at 1 uM after 6 hrs in presence of HET0016; format: cell-based; conditions: h9c2, 6 h
Rattus norvegicus [11] = assay: (§1) Induction of CYP450-mediated arachidonic acid metabolism in Sprague-Dawley rat heart microsomes assessed as 14,15-EET formation administered as cumulative dose of 15 mg/kg, ip divided into 6 injections for 2 weeks followed by compound washout period of 14 days by LC-ESI-MS analysis relative to control; format: ADME, organism-based; set-up: dose 15 mg/kg, route intraperitoneal; conditions: 336 h
CYP450 = assay: as §1, with “11,12-DHET” for “14,15-EET”; format: ADME, organism-based; set-up: dose 15 mg/kg, route intraperitoneal; conditions: probe arachidonic acid
Rattus norvegicus [12] = assay: as §1, with “14,15-DHET” for “14,15-EET”; format: ADME, organism-based; set-up: dose 15 mg/kg, route intraperitoneal; conditions: 336 h
CYP4F5 [13] = assay: Toxicity in Sprague-Dawley rat assessed as induction of CYP4F5 gene expression in liver administered as cumulative dose of 15 mg/kg, ip divided into 6 injections for 2 weeks followed by compound washout period of 14 days by RT-PCR analysis relative to control; format: organism-based; set-up: dose 15 mg/kg, route intraperitoneal
Rattus norvegicus [14] = assay: Toxicity in Sprague-Dawley rat assessed as inhibition of CYP2B1 gene expression in liver administered as cumulative dose of 15 mg/kg, ip divided into 6 injections for 2 weeks followed by compound washout period of 14 days by RT-PCR analysis relative to control; format: organism-based; set-up: dose 15 mg/kg, route intraperitoneal; conditions: in vivo, 336 h
Rattus norvegicus [15] = assay: Toxicity in Sprague-Dawley rat assessed as CYP2E1 gene expression in liver administered as cumulative dose of 15 mg/kg, ip divided into 6 injections for 2 weeks followed by compound washout period of 14 days by RT-PCR analysis relative to control; format: organism-based; set-up: dose 15 mg/kg, route intraperitoneal; conditions: in vivo, 336 h
Rattus norvegicus [16] = assay: Toxicity in Sprague-Dawley rat assessed as CYP2J3 gene expression in liver administered as cumulative dose of 15 mg/kg, ip divided into 6 injections for 2 weeks followed by compound washout period of 14 days by RT-PCR analysis relative to control; format: organism-based; set-up: dose 15 mg/kg, route intraperitoneal; conditions: in vivo, 336 h
Rattus norvegicus [17] = assay: Toxicity in Sprague-Dawley rat assessed as CYP4A1 gene expression in liver administered as cumulative dose of 15 mg/kg, ip divided into 6 injections for 2 weeks followed by compound washout period of 14 days by RT-PCR analysis relative to control; format: organism-based; set-up: dose 15 mg/kg, route intraperitoneal; conditions: in vivo, 336 h
CYP2E1 = assay: Cardiotoxicity in Sprague-Dawley rat assessed as increase in CYP2E1 gene expression level administered as cumulative dose of 15 mg/kg, ip divided into 6 injections for 2 weeks followed by compound washout period of 14 days by RT-PCR analysis relative to control; format: toxicity, organism-based; set-up: dose 15 mg/kg, route intraperitoneal; conditions: heart
Rattus norvegicus [18] = assay: Cardiotoxicity in Sprague-Dawley rat assessed as increase in IL-6 gene expression level administered as cumulative dose of 15 mg/kg, ip divided into 6 injections for 2 weeks followed by compound washout period of 14 days by RT-PCR analysis relative to control; format: toxicity, organism-based; set-up: dose 15 mg/kg, route intraperitoneal; conditions: in vivo, 336 h
Rattus norvegicus [19] = assay: Cardiotoxicity in Sprague-Dawley rat assessed as increase in beta-MHC gene expression level administered as cumulative dose of 15 mg/kg, ip divided into 6 injections for 2 weeks followed by compound washout period of 14 days by RT-PCR analysis relative to control; format: toxicity, organism-based; set-up: dose 15 mg/kg, route intraperitoneal; conditions: 336 h
Rattus norvegicus [20] = assay: Cardiotoxicity in Sprague-Dawley rat assessed as increase in CYP1A1 gene expression level administered as cumulative dose of 15 mg/kg, ip divided into 6 injections for 2 weeks followed by compound washout period of 14 days by RT-PCR analysis relative to control; format: toxicity, organism-based; set-up: dose 15 mg/kg, route intraperitoneal; conditions: in vivo, 336 h
Rattus norvegicus [21] = assay: Cardiotoxicity in Sprague-Dawley rat assessed as increase in CYP2B1 gene expression level administered as cumulative dose of 15 mg/kg, ip divided into 6 injections for 2 weeks followed by compound washout period of 14 days by RT-PCR analysis relative to control; format: toxicity, organism-based; set-up: dose 15 mg/kg, route intraperitoneal; conditions: in vivo, 336 h
Rattus norvegicus [22] = assay: Cardiotoxicity in Sprague-Dawley rat assessed as increase in CYP2C11 gene expression level administered as cumulative dose of 15 mg/kg, ip divided into 6 injections for 2 weeks followed by compound washout period of 14 days by RT-PCR analysis relative to control; format: toxicity, organism-based; set-up: dose 15 mg/kg, route intraperitoneal; conditions: in vivo, 336 h

Q: `COc1cccc2c1C(=O)c1c(O)c3c(c(O)c1C2=O)C[C@@](O)(C(=O)CO)C[C@@H]3O[C@H]1C[C@H](N)[C@H](O)[C@H](C)O1` [DOXORUBICIN] was tested. Which Activity (Rattus norvegicus [1]) did it give?
A: The Activity was “Non-toxic”.

Q: And the fold induction at 15 mg/kg (Rattus norvegicus [2])?
A: The fold induction at 15 mg/kg was 4.7.

Q: And the fold induction at 336 h (CYP1B1)?
A: Its fold induction at 336 h is 1.8.

Q: What about the fold induction at 336 h (CYP2J3) of the same compound?
A: The fold induction at 336 h was 1.6.

Q: What about the fold induction at 336 h (CYP4F5 [3]) of the same compound?
A: Its fold induction at 336 h is 1.7.

Q: And the Activity (Rattus norvegicus [4])?
A: The Activity was “Non-toxic”.

Q: What about the Activity (Rattus norvegicus [5]) of the same compound?
A: The Activity was “Non-toxic”.

Q: What about the Activity (Rattus norvegicus [6]) of the same compound?
A: The Activity was “Non-toxic”.

Q: And the fold induction at 336 h (EPHX2)?
A: The fold induction at 336 h was 1.9.

Q: And the Activity (H9c2 [7])?
A: The Activity was “Non-toxic”.

Q: What about the Activity (H9c2 [8]) of the same compound?
A: Its Activity is “Non-toxic”.

Q: And the Activity (Rattus norvegicus [9])?
A: Its Activity is “Non-toxic”.

Q: And the Activity (H9c2 [10])?
A: Its Activity is “Toxic”.

Q: What about the Activity (Rattus norvegicus [11]) of the same compound?
A: Its Activity is “Active”.

Q: And the fold induction at 336 h (CYP450)?
A: The fold induction at 336 h was 1.9.

Q: What about the Ratio (Rattus norvegicus [12]) of the same compound?
A: The Ratio was 1.3.

Q: What about the fold induction at 336 h (CYP4F5 [13]) of the same compound?
A: The fold induction at 336 h was 1.8.

Q: And the Ratio (Rattus norvegicus [14])?
A: The Ratio was 0.5.

Q: And the Activity (Rattus norvegicus [15])?
A: The Activity was “Non-toxic”.

Q: And the Activity (Rattus norvegicus [16])?
A: The Activity was “Non-toxic”.

Q: What about the Activity (Rattus norvegicus [17]) of the same compound?
A: Its Activity is “Non-toxic”.

Q: What about the fold induction at 336 h (CYP2E1) of the same compound?
A: The fold induction at 336 h was 1.8.

Q: What about the Ratio (Rattus norvegicus [18]) of the same compound?
A: Its Ratio is 1.8.

Q: What about the fold induction at 15 mg/kg (Rattus norvegicus [19]) of the same compound?
A: Its fold induction at 15 mg/kg is 2.7.

Q: And the Activity (Rattus norvegicus [20])?
A: Its Activity is “Non-toxic”.

Q: What about the Activity (Rattus norvegicus [21]) of the same compound?
A: The Activity was “Non-toxic”.

Q: And the Activity (Rattus norvegicus [22])?
A: The Activity was “Non-toxic”.
